Experiments:
Format in all cases: biochemical
[1] = test system: engineered terminal deoxynucleotidyl transferase (TdT); assay: Tailing experiment design, screening of RT-dTTPs with eTdT as enzyme; settings: for incorporation into the original FAM-20-mer (21-mer product): eTdT as enzyme, PAGE, FIG. 8A and FIG. 8B; for incorporation yield, eTdT compared with rTdT: catalytic activity of rTdT compared with eTdT, FIG. 10
Description: (§1) In this experimental design (FIG. 5), single-stranded deoxyoligonucleotides (20 nt) 102 with FAM tagged on 5′ end reacts with RT-dNTP 104 using TdT as the catalyst, and produce 21-mer (102a and 102b).
(§2) As the incorporation is not 100%, the unreacted FAM tagged oligo will further react with natural deoxynucleotidyl triphosphates (dATP) 106, and produces tailing products 102c. The 21-mer (102a and 102b) and tailing products (102c) can be separated by polyacrylamide gel electrophoresis.
(§3) 1. Set up the following reactions
(§4) 2. Incubate the solution at 37° C. for 60 min
(§5) 3. Purification • Desalt with Zymo column Oligo Clean & Concentrator D4061 (following manufacturer's protocol) to obtain 15 μL aqueous solution and concentrate on speedvac to dry
(§6) 4. Set up the following reactions
(§7) 5. Incubate at 37° C. for 60 min
(§8) 6. Stop the reaction by heating at 70° C. for 10 min
(§9) 7. Purification • Desalt with Zymo column Oligo Clean & Concentrator D4061 (following manufacturer's protocol) to obtain 15 μL aqueous solution and concentrate on speedvac to dry
(§10) 8. Denaturing PAGE (20% urea PAGE, 200V for 90 min) • Preheat 1×TBE buffer at 65° C. • Set up gel in gel tank, flush wells, pre-run 20% urea polyacrylamide gel at 200V for 30 min • Prepare loading sample (dry sample+2.5 μL 1×TBE, 0.5 μL loading buffer), preheat sample at 95° C. for 10 min • Flush each well 3 times to remove urea in wells, load sample, and run for 90 min • Image under UV light without post staining. If post staining is needed, SYBR Gold is used.
(§11) In evaluating the RT-dTTP(s)'s incorporation and termination activities using tailing experiment design, two types of TdTs are used for the evaluation studies: recombinant TdT (rTdT) purchased from Promega and engineered TdT (eTdT).

[2] = test system: template-independent terminal deoxynucleotidyl transferase (TdT) enzyme; assay: Single base addition to single-stranded nucleotide sequence catalysed by TdT (overall conclusion); settings: for termination of further base incorporation: summary of tailing experiments; for incorporation in single stranded oligonucleotide via the catalysis of TdT: summary, recombinant or engineered TdT
Description: A series of screening experiments were designed and conducted to test the recognition of the reversible terminators nucleoside triphosphate reversible terminators designed in accordance with various embodiments disclosed herein by template-independent polymerase and the efficiency of the incorporation of such reversible terminators into the nucleic acid chain. In these experiments, the template-independent polymerase used is recombinant or engineered template-independent terminal deoxynucleotidyl transferase (TdT) enzyme and the initiator used is a single-stranded oligonucleotide sequence.

[3] = biological target: T1, rTdT (Bos taurus, UniProt P06526); assay: Laddering experiment design (dATP / RT-dTTP ratios); settings: laddering experiments, FIG. 11; compared with Az-dTTP
T1 construct: purchased Promega
Procedure: The laddering experiment design is to differentiate the ratio between natural dNTP and RT-dNTP.
as §3
2. Incubate at 37° C. for 60 min
3. Stop the reaction by heating at 70° C. for 10 min
4. Purification • Desalt with Zymo column Oligo Clean & Concentrator D4061 (following manufacturer's protocol) to obtain 15 μL aqueous solution and concentrate on speedvac to dry
5. Denaturing PAGE (20% urea PAGE, 200V for 90 min) • Preheat 1×TBE buffer at 65° C. • Set up gel in gel tank, flush wells, pre-run 20% urea polyacrylamide gel at 200V for 30 min • Prepare loading sample (dry sample+2.5 μL 1×TBE, 0.5 μL loading buffer), preheat sample at 95° C. for 10 min • Flush each well 3 times to remove urea in wells, load sample, and run for 90 min • Image under UV light without post staining. If post staining is needed, SYBR Gold is used.

[4] = test system: terminal deoxynucleotidyl transferase (TdT); assay: Evaluation of reversibility of reversible terminators (incorporation, capping, deprotection, elongation); settings: elongation by TdT after deprotection of CE or DT
Description: Once RT-dTTP is incorporated to the single-stranded oligonucleotide, the reversible terminator needs to be removed to enable the next base incorporation. […] The reaction will produce a mixture of products which includes the reversibly terminated 21-mer (202a and 202b) and unreacted original 20-mer 202. Then azido-ddGTP 206 will be added to 3′-termini of the unreacted 20-mer 202. As 3′ termini become a dideoxynucleotide 202c, the azido oligonucleotide will not be able to further react with any dTTP via TdT. Then reversibly terminator will be removed in certain conditions, and further incorporated with natural dTTP 208 via TdT.
1. Set Up the Following Reactions
as §4
3. Purification • Desalt with Zymo column Oligo Clean & Concentrator D4061 (following protocol) to obtain 15 μL aqueous solution and concentrate on speedvac to dry
4. Add 85 μL of 30% NH4OH and heat at 80° C. for 1 h
5. Purification • Desalt with Zymo column Oligo Clean & Concentrator D4061 (following protocol) to obtain 15 μL aqueous solution and concentrate on speedvac to dry Elongation of Nucleotide with Natural dATP:
6. Set up the following reactions
7. Incubate at 37° C. for 60 min
8. Stop the reaction by heating at 70° C. for 10 min
9. Purification • Desalt with Zymo column Oligo Clean & Concentrator D4061 (following protocol) to obtain 15 μL aqueous solution and concentrate on speedvac to dry […]

[5] = biological target: T2, recombinant terminal deoxynucleotidyl transferase (TdT) (Bos taurus, UniProt P06526); assay: Tailing experiment design, screening of RT-dTTPs with rTdT as enzyme; settings: 37° C. for 60 min, PAGE, FIG. 6A, FIG. 7
T2 construct: purchased Promega
Description: as §1, §2, §3, §4, §5, §6, §7, §8, §9, §10, §11

T2 sequence (P06526 whole entry): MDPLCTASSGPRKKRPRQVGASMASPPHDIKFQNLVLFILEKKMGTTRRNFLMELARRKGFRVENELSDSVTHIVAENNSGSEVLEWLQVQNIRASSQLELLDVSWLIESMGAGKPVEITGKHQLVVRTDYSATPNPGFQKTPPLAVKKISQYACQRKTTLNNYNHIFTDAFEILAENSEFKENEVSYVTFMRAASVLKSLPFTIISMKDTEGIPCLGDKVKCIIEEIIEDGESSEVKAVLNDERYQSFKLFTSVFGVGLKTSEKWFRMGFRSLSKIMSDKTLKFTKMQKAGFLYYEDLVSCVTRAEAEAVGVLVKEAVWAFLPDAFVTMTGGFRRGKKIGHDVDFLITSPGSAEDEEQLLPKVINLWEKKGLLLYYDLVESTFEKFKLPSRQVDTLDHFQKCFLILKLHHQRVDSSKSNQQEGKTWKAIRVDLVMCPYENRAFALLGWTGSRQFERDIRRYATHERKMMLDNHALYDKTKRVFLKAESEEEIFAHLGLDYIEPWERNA
T1 sequence (P06526 whole entry): as above

Row | Molecule | incorporation into the original FAM-20-mer (21-mer product) [1] | termination of further base incorporation [2] | incorporation in single stranded oligonucleotide via the catalysis of TdT [2] | incorporation yield, eTdT compared with rTdT [1] | termination of the reaction [3] | further incorporation of natural nucleotide after deprotection [4] | incorporation into the original FAM-20-mer (21-mer product) [5]
1 | C=CCOCO[C@H]1C[C@H](n2cc(C)c(=O)[nH]c2=O)O[C@@H]1COP(=O)(O)OP(=O)(O)OP(=O)(O)O [AL-dTTP, (allyloxy)methyl (ALM)-dTTP] | gave 21-mer products | terminate further base incorporation | successfully incorporated |  |  |  | 
2 | Cc1cn(C2CC(OCN=[N+]=[N-])C(COP(=O)(O)OP(=O)(O)OP(=O)(O)O)O2)c(=O)[nH]c1=O (stereo not shown) [Az-dTTP, reference compound] |  |  |  | much high incorporation yield than rTdT |  |  | 
3 | Cc1cn([C@H]2C[C@H](OCCC#N)[C@@H](COP(=O)(O)OP(=O)(O)OP(=O)(O)O)O2)c(=O)[nH]c1=O [CE-dTTP, 2-cyanoethyl ether (CE)-dTTP] |  |  |  | much high incorporation yield than rTdT | can terminate the reaction as well as Az-dTTP | able to incorporate with natural dTTP | 
4 | Cc1cn([C@H]2C[C@H](OC(=O)OCCSSC(C)(C)C)[C@@H](COP(=O)(O)OP(=O)(O)OP(=O)(O)O)O2)c(=O)[nH]c1=O [DT-dTTP, disulfide carbonate (DT)-dTTP] | gave 21-mer products | terminate further base incorporation | successfully incorporated |  | can terminate the reaction as well as Az-dTTP | able to incorporate with natural dTTP | particularly good yield of 21-mer
5 | Cc1cn([C@H]2C[C@H](OCOCc3ccc([N+](=O)[O-])cc3)[C@@H](COP(=O)(O)OP(=O)(O)OP(=O)(O)O)O2)c(=O)[nH]c1=O [PNBA-dTTP, 4-nitrobenzyloxy-methyl (PNBA)-dTTP] | gave 21-mer products | terminate further base incorporation | successfully incorporated |  |  |  | gave 21-mer products
6 | Cc1cn([C@H]2C[C@H](OCOCC[Si](C)(C)C)[C@@H](COP(=O)(O)OP(=O)(O)OP(=O)(O)O)O2)c(=O)[nH]c1=O [SEM-dTTP, 2-(trimethylsilyl)ethoxymethyl (SEM)-dTTP] | gave 21-mer products | terminate further base incorporation | successfully incorporated |  |  |  | gave 21-mer products
7 | dithianemethyl acetal (DMA)-dTTP [DMA-dTTP] | gave 21-mer products | terminate further base incorporation | successfully incorporated |  |  |  | gave 21-mer products

— US20230148152A1, “METHOD OF SYNTHESIZING SINGLE-STRANDED NUCLEOTIDE SEQUENCE, BLOCKED NUCLEOSIDE TRIPHOSPHATES AND RELATED METHODS” (Agency for Science, Technology and Research, priority 2019, published 2023)
